Patent US20040002477A1, “Erectile dysfunction remedies containing prostaglandin derivatives as the active ingredient” (priority 2000, published 2004)

Legend:
corpus cavernosum = experiment: Corpus cavernosum relaxation activity in cats (norepinephrine-contracted isolated tissue, Magnus tube); type: cell-based; details: cat corpus cavernosum; for Corpus cavernosum relaxation rate: 10 μM norepinephrine contraction = 100%, Means ± SE
Method: Under anesthesia with urethane, penis of five cats (hybrid, weight about 3.5 kg) was removed. In the krebs solution, a corpus cavernosum was isorated, quartered and suspended with the tention of 200 mg in the Magnus tube. 10 μM norepinephrine was added and the tissue was constricted. Then the stable contraction was checked. After the addition of norepinephrine, (5Z, 9β, 11α, 13E)-17,17-propano-11,16-dihydroxy-9-chloro-20-norprosta-5,13-dienic acid·lysine salt (compound A) and (5Z, 9β, 11α, 13E)-17,17-propano-11,16-dihydroxy-9-chloroprosta-5,13,19-trienic acid (compound B), which are the compounds of the formula (I), were added respectively and the changes of the contraction were measured. As controls, PGE1 and 19-hydroxy-PGE2 were used. Each compounds were disolved in DMSO and used. The contraction induced by 10 μM norepinephrine was considered as 100% and the percentages of the relaxation rate were calculated.

human corpus cavernosum = experiment: Corpus cavernosum relaxation activity in human (noradrenalin-contracted isolated tissue, Magnus tube); type: cell-based; details: for Corpus cavernosum relaxation rate: 10 μM noradrenalin contraction = 100%, added cumulatively, Means ± SE
Method: The samples of the human corpus cavernosum taken at the time of operative treatment in agreement of the patient were suspended with the tention of 500 mg in the Magnus tube fulled by glucose-added Krebs buffer. The 10^−5M (10 μM) noradrenalin-induced contraction reaction, acetylcholine-induced relaxation reaction and electrostimulation(EFS)-induced contraction reaction were checked and the samples responded normaly were used in the experiment. It was reconstricted by 10 μM noradrenalin, the compound A used in the present invention of the formula (I) (n=4), the compound B used in the present invention of the formula (I) (n=5) or PGE1 (n=5), which were disolved by DMSO, were added cumulatively and the relaxation reacton was recorded on the chart. The contraction induced by 10 μM noradrenaline was concidered as 100% and the percentage of the relaxation rate was calculated.

[1] = rat, in vivo, iv
Method: It has been confirmed that the compounds used in the present invention of the formula (I) have sufficiently low toxicity and are sufficiently safe for use as pharmaceutical preparations. For example, the maximal tolerated dose of the compound A (lysine salts) in the compound of the formula (I) was 30 mg/kg weight or more for rat intravenous administration.

Row | Molecule | Corpus cavernosum relaxation rate (corpus cavernosum; dose 0.1 μM) [%] | Corpus cavernosum relaxation rate (corpus cavernosum; dose 1.0 μM) [%] | Corpus cavernosum relaxation rate (human corpus cavernosum; dose 1.0 μM) [%] | Corpus cavernosum relaxation rate (human corpus cavernosum; dose 10 μM) [%] | Corpus cavernosum relaxation rate (corpus cavernosum; dose 0.3 μM) [%] | Intensity of relaxation compared with PGE1 (corpus cavernosum) | Relaxation of corpus cavernosum, dose dependence (corpus cavernosum) | Potency relative to PGE1 (human corpus cavernosum) [times] | Maximal tolerated dose [1] [mg/kg weight]
1 | CCCCC[C@H](O)/C=C/[C@H]1[C@H](O)CC(=O)[C@@H]1CCCCCCC(=O)O [PGE1, prostaglandin E1, reference compound] | 21.3 ± 2.3 | 35.5 ± 5.0 | 16.8 ± 7.2 | 27.9 ± 8.8 | – | – | – | – | –
2 | 19-hydroxy-PGE2 [reference compound] | – | 27.2 ± 4.7 | – | – | 20.0 ± 4.2 | – | – | – | –
3 | C=CCC1(C(O)C/C=C/[C@@H]2[C@@H](C/C=C\CCCC(=O)O)[C@H](Cl)C[C@H]2O)CCC1 (stereo partly drawn) [Compound B, (5Z, 9β, 11α, 13E)-17,17-propano-11,16-dihydroxy-9-chloroprosta-5,13,19-trienic acid] | 18.1 ± 4.8 | 36.8 ± 4.2 | 25.0 ± 4.4 | 45.3 ± 4.5 | – | at the same level as PGE1 | dose-dependent relaxasions | 1.6 | –
4 | CCC1(C(O)C/C=C/C2C(O)CC(Cl)C2C/C=C\CCCC(=O)O)CCC1.NCCCC[C@H](N)C(=O)O (stereo not drawn) [Compound A, (5Z, 9β, 11α, 13E)-17,17-propano-11,16-dihydroxy-9-chloro-20-norprosta-5,13-dienic acid·lysine salt] | 26.8 ± 4.2 | 35.2 ± 2.8 | 29.9 ± 13.7 | 44.5 ± 12.6 | – | at the same level as PGE1 | dose-dependent relaxasions | 1.6 | ≥ 30
